Legend:
[1] = biological target: T1, Enoyl-[acyl-carrier-protein] reductase [NADPH] FabI (Staphylococcus aureus) (UniProt Q6GI75); assay: Inhibition of N-terminal his 6 tagged Staphylococcus aureus Fabi (1 to […] residues) expressed in Escherichia coli BL21 at 10 uM incubated for 30 mins in presence of NADPH by fluorescence based microplate reader analysis relative to control
T1 sequence (whole entry): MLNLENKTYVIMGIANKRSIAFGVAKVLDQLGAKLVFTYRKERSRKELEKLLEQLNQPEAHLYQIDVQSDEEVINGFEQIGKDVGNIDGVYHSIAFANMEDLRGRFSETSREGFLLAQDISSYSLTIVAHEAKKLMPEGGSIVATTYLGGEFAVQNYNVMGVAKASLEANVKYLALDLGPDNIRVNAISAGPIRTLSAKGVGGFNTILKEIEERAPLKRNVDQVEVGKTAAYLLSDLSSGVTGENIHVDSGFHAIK

[2] = biological target: T1, Enoyl-[acyl-carrier-protein] reductase [NADPH] FabI (Staphylococcus aureus); assay: Inhibition of N-terminal his 6 tagged Staphylococcus aureus Fabi (1 to […] residues) expressed in Escherichia coli BL21 at 1 uM incubated for 30 mins in presence of NADPH by fluorescence based microplate reader analysis relative to control
Staphylococcus aureus [3] = assay: Antimicrobial activity against […] Staphylococcus aureus ATCC33591 measured after 24 hrs by CLSI protocol based microdilution method; format: functional
Staphylococcus aureus [4] = assay: Antimicrobial activity against […] Staphylococcus aureus ATCC43300 measured after 24 hrs by CLSI protocol based microdilution method; format: functional
Staphylococcus aureus [5] = assay: Antimicrobial activity against […] Staphylococcus aureus USA300 measured after 24 hrs by CLSI protocol based microdilution method; format: functional
Staphylococcus aureus [6] = assay: Antimicrobial activity against […] Staphylococcus aureus NRS271 measured after 24 hrs by CLSI protocol based microdilution method; format: functional
Staphylococcus aureus [7] = assay: Antimicrobial activity against methicillin-susceptible Staphylococcus aureus ATCC29213 measured after 24 hrs by CLSI protocol based microdilution method; format: functional
Staphylococcus aureus [8] = assay: Antimicrobial activity against methicillin-susceptible Staphylococcus aureus ATCC25923 measured after 24 hrs by CLSI protocol based microdilution method; format: functional
Enterococcus faecium = assay: Antimicrobial activity against Enterococcus faecium ATCC19434 measured after 24 hrs by CLSI protocol based microdilution method; format: functional
Enterococcus faecalis = assay: Antimicrobial activity against Enterococcus faecalis ATCC29212 measured after 24 hrs by CLSI protocol based microdilution method; format: functional
Pseudomonas aeruginosa = assay: Antimicrobial activity against Pseudomonas aeruginosa PAO1 measured after 24 hrs by CLSI protocol based microdilution method; format: functional
Escherichia coli = assay: Antimicrobial activity against Escherichia coli ATCC25922 measured after 24 hrs by CLSI protocol based microdilution method; format: functional
Acinetobacter baumannii = assay: Antimicrobial activity against Acinetobacter baumannii ATCC19606 measured after 24 hrs by CLSI protocol based microdilution method; format: functional
Candida albicans = assay: Antimicrobial activity against Candida albicans SC5314 measured after 48 hrs by CLSI protocol based microdilution method; format: functional

SMILES | inhibition [1] [%] | inhibition [2] [%] | MIC (Staphylococcus aureus [3]) [µg/mL] | MIC (Staphylococcus aureus [4]) [µg/mL] | MIC (Staphylococcus aureus [5]) [µg/mL] | MIC (Staphylococcus aureus [6]) [µg/mL] | MIC (Staphylococcus aureus [7]) [µg/mL] | MIC (Staphylococcus aureus [8]) [µg/mL] | MIC (Enterococcus faecium) [µg/mL] | MIC (Enterococcus faecalis) [µg/mL] | MIC (Pseudomonas aeruginosa) [µg/mL] | MIC (Escherichia coli) [µg/mL] | MIC (Acinetobacter baumannii) [µg/mL] | MIC (Candida albicans) [µg/mL]
Cn1c(C2CC(=O)N(C3CCCCC3)C2)nc2ccccc21 (configuration not stated) | 43.7 | 3.2 | > 32 | > 32 | > 32 | > 32 | > 32 | > 32 | > 32 | > 32 | > 32 | > 32 | > 32 | > 32
Cn1c(C2CC(=O)N(c3ccc(F)c(F)c3)C2)nc2ccccc21 (configuration not stated) | 40.1 | 2.7 | > 32 | > 32 | > 32 | > 32 | > 32 | > 32 | > 32 | > 32 | > 32 | > 32 | > 32 | > 32
Cn1c(CCC(=O)Nc2ccccc2)nc2ccccc21 | 7.8 | 7.7 | > 32 | > 32 | > 32 | > 32 | > 32 | > 32 | > 32 | > 32 | > 32 | > 32 | > 32 | > 32
Cc1cccc(N2CCC(c3nc4ccccc4n3C)CC2)c1C | 2 | 2.8 | > 32 | > 32 | > 32 | > 32 | > 32 | > 32 | > 32 | > 32 | > 32 | > 32 | > 32 | > 32
Cn1c(C2CC(=O)N(c3ccc(Br)c(Br)c3)C2)nc2ccccc21 (configuration not stated) | 45.4 | 4.8 | > 32 | > 32 | > 32 | > 32 | > 32 | > 32 | > 32 | > 32 | > 32 | > 32 | > 32 | > 32
Cc1cccc(NC(=O)CCc2nc3ccccc3n2C)c1C | 10 | 4.5 | > 32 | > 32 | > 32 | > 32 | > 32 | > 32 | > 32 | > 32 | > 32 | > 32 | > 32 | > 32
Cn1c(C(=O)Nc2cccc(C(=O)NCc3ccccc3)c2)nc2ccccc21 | 4 | 6.8 | > 32 | > 32 | > 32 | > 32 | > 32 | > 32 | > 32 | > 32 | > 32 | > 32 | > 32 | > 32
Cn1c(C2CC(=O)N(c3ccc4ncsc4c3)C2)nc2ccccc21 (configuration not stated) | 43.4 | 4.1 | > 32 | > 32 | > 32 | > 32 | > 32 | > 32 | > 32 | > 32 | > 32 | > 32 | > 32 | > 32
COc1cccc(N2CC(c3nc4ccccc4n3C)CC2=O)c1OC (configuration not stated) | 45.2 | 3.8 | > 32 | > 32 | > 32 | > 32 | > 32 | > 32 | > 32 | > 32 | > 32 | > 32 | > 32 | > 32
Cc1cccc(C(=O)NCCNC(=O)CCc2nc3ccccc3n2C)c1C | 25.6 | 5.2 | > 32 | > 32 | > 32 | > 32 | > 32 | > 32 | > 32 | > 32 | > 32 | > 32 | > 32 | > 32
Cn1c(C2CC(=O)N(c3cccc(-c4ccccc4)c3)C2)nc2ccccc21 (configuration not stated) | 10.1 | 3.5 | > 32 | > 32 | > 32 | > 32 | > 32 | > 32 | > 32 | > 32 | > 32 | > 32 | > 32 | > 32
Cn1c(C2CC(=O)N(c3ccccc3-c3ccccc3)C2)nc2ccccc21 (configuration not stated) | 5.8 | 2.3 | > 32 | > 32 | > 32 | > 32 | > 32 | > 32 | > 32 | > 32 | > 32 | > 32 | > 32 | > 32
Cn1c(CCC(=O)NCCNC(=O)Cc2ccccc2)nc2ccccc21 | 21.4 | 3.6 | > 32 | > 32 | > 32 | > 32 | > 32 | > 32 | > 32 | > 32 | > 32 | > 32 | > 32 | > 32
Cn1c(C2CC(=O)N(c3ccc(N4CCOCC4)cc3)C2)nc2ccccc21 (configuration not stated) | 7.7 | 8.2 | > 32 | > 32 | > 32 | > 32 | > 32 | > 32 | > 32 | > 32 | > 32 | > 32 | > 32 | > 32
Cn1c(C2CC(=O)N(c3ccc4ccccc4c3)C2)nc2ccccc21 (configuration not stated) | 51.7 | 2.8 | > 32 | > 32 | > 32 | > 32 | > 32 | > 32 | > 32 | > 32 | > 32 | > 32 | > 32 | > 32
Cn1c(C2CC(=O)N(c3ccccc3)C2)nc2ccccc21 (configuration not stated) | 56.2 | 8.9 | > 32 | > 32 | > 32 | > 32 | > 32 | > 32 | > 32 | > 32 | > 32 | > 32 | > 32 | > 32
Cn1c(C2CC(=O)N(c3ccc(Cl)cc3)C2)nc2ccccc21 (configuration not stated) | 35.7 | 2.2 | > 32 | > 32 | > 32 | > 32 | > 32 | > 32 | > 32 | > 32 | > 32 | > 32 | > 32 | > 32
Cn1ccc(N2CC(c3nc4ccccc4n3C)CC2=O)n1 (configuration not stated) | 4.3 | 5.1 | > 32 | > 32 | > 32 | > 32 | > 32 | > 32 | > 32 | > 32 | > 32 | > 32 | > 32 | > 32
